Source: publication PMC6685951, “Migration of Bacteriocins Across Gastrointestinal Epithelial and Vascular Endothelial Cells, as Determined Using In Vitro Simulations” (Scientific Reports, 2019)
Where a SMILES comes first, the peptide text is derived from it. Bridges are numbered along the chain shown (N, C = ends).

Columns and labels:
HUVEC = experiment: XTT viability assay, HUVEC; format: cell-based, human; conditions: 24 h, 37 °C
Protocol: (§1) For viability and cytotoxicity studies, cells were seeded in 96-well flat-bottom culture plates (1 × 10^4 cells/well). To determine migration of nisin A, plantaricin 423 and bacST4SA across the gastrointestinal epithelial and vascular endothelial barriers, HUVEC and Caco-2 cells were grown on an 8 µm pore size tissue culture insert, as shown in Fig. 1. All cell culture experiments were done in triplicate and have been repeated more than three times.
Cells were grown in 100 µL of culture medium for 24 h at 37 °C. The bacteriocins were separately added to the cells at concentrations of 25 µM, 50 µM and 100 µM. Sterile ultrapure water was used as control. After 24 h of incubation at 37 °C, the reaction mixture containing PMS (N-methyl-dibenzopyrazine-methylsulfate/phenazine methosulphate) and XTT solution, was added to each well and incubated for 4 h at 37 °C. Absorbance readings were recorded at 450 nm, using a microtiter plate reader. The percentage viability was calculated as AT/AC × 100; where AT is the absorbance of peptide-treated cells and AC is the absorbance of control (untreated cells).

Caco-2 cells = experiment: LDH release assay, Caco-2; format: cell-based, human; conditions: 24 h
Protocol: as §1
HUVEC and Caco-2 cells were exposed to three different concentrations (25 µM, 50 µM and 100 µM) nisin A, plantaricin 423 and bacST4SA and the presence of extracellular LDH determined using the LDH release assay kit. Sterile ultrapure water was used as negative control (referred to as spontaneous LDH activity) and lysis buffer (10X) was used as positive control (referred to as maximum LDH activity). After incubating the cultures in the presence of the peptides for 24 h at 37 °C, culture supernatants were pipetted into a 96-well plate. Reaction mixture was added to the supernatants and plates were incubated at 25 °C for 30 min. Absorbance was measured at 490 nm and 680 nm, respectively. The percentage cytotoxicity was calculated as follows (1):1 %Cytotoxicity=(Compound−treatedLDHactivity)−(SpontaneousLDHactivity)/MaximumLDHactivity−SpontaneousLDHactivity×100

L. monocytogenes EGDe = experiment: Antimicrobial activity of NHS-fluorescein labelled versus unlabelled peptides (zone sizes); format: cell-based, Listeria monocytogenes; conditions: 50 µM, 20 µL spotted on LEB agar seeded with L. monocytogenes EGDe, overnight 37 °C
Protocol: HPLC purified stock solutions of nisin A, plantaricin 423 and bacST4SA were prepared by dissolving the peptides in sterile ultrapure water. Immediately before conjugating NHS-fluorescein to the peptides, a stock solution of NHS-fluorescein was prepared by dissolving 1 mg of reagent in 100 µL DMF. The amount of NHS-fluorescein to be added to each peptide was calculated using the Eqs (2) and (3):2 mLpeptide×mgpeptide/mLpeptide×mmolpeptide/mgpeptide×15mmolNHS/mmolpeptide=mmolNHS 3 mmolNHS×473.4(MWofNHS)/mmolNHS×100µLDMF/1mg=µLNHS
The calculated concentration of NHS-fluorescein was added to the peptides and incubated on ice for 2 h. Non-reacted NHS-fluorescein was removed by Sep-Pak C18 column chromatography. Plantaricin 423 and bacST4SA were eluted with 60% acetonitrile containing 0.1% TFA and nisin A with 40% acetonitrile containing 0.1% TFA. Peptides were freeze dried and resuspended in sterile ultrapure water. Concentrations of the labelled peptides were determined with the BCA assay and diluted to 50 µM. Labelled peptides were filtered through a 0.45 µm HVLP membrane and spotted (20 µL) onto LEB agar seeded with 1% L. monocytogenes EGDe (OD600 0.1). Plates were incubated overnight at 37 °C and the fluorescent peptides visualised under a UVP 3UV Ultraviolet Lamp. Inhibition zones were measured using ImageJ software and compared to those of non-labelled peptides.

HUVEC monolayer = experiment: Migration across HUVEC monolayer on transmigration inserts; format: in vitro ADME, human; conditions: 3 h
Protocol: as §1
HUVECs and Caco-2 cells were seeded onto transmigration inserts (Fig. 1) at a cell density of 1 × 10^5 cells/insert (200 µL). Inserts were carefully placed in a 24-well tissue culture plate containing 700 µL cell growth media. […] The integrity of the monolayers was monitored by ensuring trans-epithelial electrical resistance (TEER) readings remained above 300 Ω throughout the experiment (Millicell-ERS volt-ohm meter, Merck)[51],[52],[62]. […] Transmigration inserts containing no monolayer, was used to determine the total fluorescence. Samples were incubated for 3 h while absorbance was measured at 490 nm every 30 min using a microplate reader. Before each reading, inserts were removed and placed into new microplates containing fresh media. […]
The percentage of peptide that attached to, or entered the cells was quantified by subtracting the sum of migrated peptide (eq. 4) and retained peptide (eq. 5) from the total fluorescence. […]

Compound: CC(C)C[C@@H]1NC(=O)[C@H](Cc2c[nH]cn2)NC(=O)[C@H](CO)NC(=O)[C@H](C(C)C)NC(=O)[C@H](CO)NC(=O)[C@@H](NC(=O)[C@H](CO)NC(=O)[C@H](Cc2ccccc2)NC(=O)[C@H](C)NC(=O)[C@H](CCC(N)=O)NC(=O)CNC(=O)[C@H](Cc2c[nH]c3ccccc23)NC(=O)[C@H](CC(N)=O)NC(=O)[C@@H](NC(=O)[C@H](CO)NC(=O)[C@@H]2CSSC[C@H](NC(=O)[C@@H](NC(=O)[C@@H](NC(=O)CNC(=O)[C@H](CC(N)=O)NC(=O)CNC(=O)[C@H](Cc3ccc(O)cc3)NC(=O)[C@H](Cc3ccc(O)cc3)NC(=O)[C@@H](N)CCCCN)C(C)C)[C@@H](C)O)C(=O)NCC(=O)N[C@@H](CCCCN)C(=O)N[C@@H](Cc3c[nH]cn3)C(=O)N[C@@H](CO)C(=O)N2)C(C)C)CSSC[C@@H](C(=O)O)NC(=O)[C@H](CCCCN)NC(=O)CNC(=O)[C@H](Cc2c[nH]cn2)NC(=O)CNC(=O)[C@H](Cc2ccccc2)NC(=O)[C@H](CC(N)=O)NC(=O)[C@H](C)NC1=O [plantaricin 423] (H-KYYGNGVTCGKHSCSVNWGQAFSCSVSHLANFGHGKC-OH; disulfide 9-14, 24-37; N-terminus and C-terminus assumed)
- cell viability (XTT) (HUVEC; 25 µM and 50 µM (up to 50 µM), absorbance 450 nm): did not cause significant decreases
- cell viability (XTT) (HUVEC; 100 µM): slight reduction
- cytotoxicity level (LDH release) (Caco-2 cells; Caco-2, 100 µM, 37 °C, percentage of maximum LDH release (lysis buffer = 100%)): 17%
- toxicity (LDH release) (Caco-2 cells; Caco-2, concentrations up to 100 µM): minimal toxicity
- decrease in activity of labelled versus unlabelled peptide (antimicrobial zone sizes) (L. monocytogenes EGDe): 24%
- migrated peptide (HUVEC monolayer; HUVEC monolayer on 8 µm pore insert, apical addition, NHS-fluorescein labelled peptide 50 µM, 37 °C, TEER above 300 Ω, read at 490 nm, % of no-monolayer control, triplicate): 93%
- percentage attached and/or entered peptide (HUVEC monolayer; HUVEC, labelled peptide 50 µM, total fluorescence minus migrated and residual peptide): 0%
